Inconclusive results and toxic doses are left out. Rule as the data show it: active = T/C of 150% or more; inactive = T/C below 125%.
System: L1210 leukemia ip in BDF1 mice, survival T/C
Experiment: NCI In Vivo Anticancer Drug Screen. Data for tumor model L1210 Leukemia (intraperitoneal) in B6D2F1 (BDF1) mice
Conditions: endpoint: mean survival time, higher = longer survival
Outline: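 Mice bearing the transplanted tumor received compound or vehicle. Survival of the treated group was divided by that of the vehicle-treated control group to give the ratio.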

[1] = dose: 100.0 mg/kg/injection, schedule: Q04DX002 (ip), vehicle: Klucel (hydroxypropylcellulose) (HPC)
[2] = dose: 200.0 mg/kg/injection, schedule: Q04DX002 (ip), vehicle: Klucel (hydroxypropylcellulose) (HPC)
[3] = dose: 400.0 mg/kg/injection, schedule: Q04DX002 (ip), vehicle: Klucel (hydroxypropylcellulose) (HPC)
[4] = dose: 100.0 mg/kg/injection, schedule: Q04DX003 (ip), vehicle: saline with Tween-80
[5] = dose: 200.0 mg/kg/injection, schedule: Q04DX003 (ip), vehicle: saline with Tween-80
[6] = dose: 400.0 mg/kg/injection, schedule: Q04DX003 (ip), vehicle: saline with Tween-80
[7] = dose: 100.0 mg/kg/injection, schedule: Q01DX001 (ip), vehicle: saline
[8] = dose: 200.0 mg/kg/injection, schedule: Q01DX001 (ip), vehicle: saline
[9] = dose: 400.0 mg/kg/injection, schedule: Q01DX001 (ip), vehicle: saline
[10] = dose: 25.0 mg/kg/injection, schedule: Q04DX003 (ip), vehicle: saline with Tween-80
[11] = dose: 12.5 mg/kg/injection, schedule: Q01DX009 (ip), vehicle: saline
[12] = dose: 25.0 mg/kg/injection, schedule: Q01DX009 (ip), vehicle: saline
[13] = dose: 50.0 mg/kg/injection, schedule: Q01DX009 (ip), vehicle: saline
[14] = dose: 100.0 mg/kg/injection, schedule: Q04DX003 (ip), vehicle: Klucel (hydroxypropylcellulose) (HPC)
[15] = dose: 200.0 mg/kg/injection, schedule: Q04DX003 (ip), vehicle: Klucel (hydroxypropylcellulose) (HPC)
[16] = dose: 400.0 mg/kg/injection, schedule: Q04DX003 (ip), vehicle: Klucel (hydroxypropylcellulose) (HPC)

Measured: T/C

COC(=O)/C(=C\c1ccc([N+](=O)[O-])s1)C(C)=O
inactive: dose: 6.25 mg/kg/injection, schedule: Q01DX005 (ip), vehicle: saline with Tween-80 92 % of control | dose: 12.5 mg/kg/injection, schedule: Q01DX005 (ip), vehicle: saline with Tween-80 94 % of control | dose: 12.5 mg/kg/injection, schedule: Q04DX003 (ip), vehicle: saline 94 % of control | dose: 25.0 mg/kg/injection, schedule: Q04DX003 (ip), vehicle: saline 96 % of control | dose: 50.0 mg/kg/injection, schedule: Q04DX003 (ip), vehicle: saline 86 % of control

Cc1ccnc2c([N+](=O)[O-])cccc12
inactive: dose: 75.0 mg/kg/injection, schedule: Q01DX001 (ip), vehicle: other 102 % of control | dose: 100.0 mg/kg/injection, schedule: Q04DX002 (ip), vehicle: saline with Tween-80 103 % of control | dose: 150.0 mg/kg/injection, schedule: Q01DX001 (ip), vehicle: other 102 % of control | dose: 200.0 mg/kg/injection, schedule: Q04DX002 (ip), vehicle: saline with Tween-80 109 % of control | dose: 300.0 mg/kg/injection, schedule: Q01DX001 (ip), vehicle: other 103 % of control

O=C(CCCCCCCCC(=O)NCCBr)NCCBr
inactive: dose: 100.0 mg/kg/injection, schedule: Q01DX005 (ip), vehicle: Klucel (hydroxypropylcellulose) (HPC) 98 % of control | [1] 104 % of control | dose: 200.0 mg/kg/injection, schedule: Q01DX005 (ip), vehicle: Klucel (hydroxypropylcellulose) (HPC) 94 % of control | [2] 101 % of control | dose: 400.0 mg/kg/injection, schedule: Q01DX005 (ip), vehicle: Klucel (hydroxypropylcellulose) (HPC) 102 % of control | [3] 101 % of control

CCOC(=O)NC(=S)[S][Sb]([S]C(=S)NC(=O)OCC)[S]c1nc2ccc(N=Nc3ccc(NS(=O)(=O)c4ccc(NC(=O)C(Cl)Cl)cc4)cc3)cc2s1
inactive: dose: 100.0 mg/kg/injection, schedule: Q01DX001 (ip), vehicle: steriod suspending solution 95 % of control | dose: 200.0 mg/kg/injection, schedule: Q01DX001 (ip), vehicle: steriod suspending solution 105 % of control | dose: 400.0 mg/kg/injection, schedule: Q01DX001 (ip), vehicle: steriod suspending solution 92 % of control

CC(C)(C)c1cc(Cc2cc(C(C)(C)C)c(O)c(C(C)(C)C)c2)cc(C(C)(C)C)c1O
inactive: [4] 96 % of control | [5] 98 % of control | [6] 104 % of control

CCCCC(=O)CCl
inactive: [7] 103 % of control | [8] 120 % of control | [9] 114 % of control

Cn1cc(Cc2ccccc2)c(=O)n(C)c1=O
inactive: [4] 100 % of control | [5] 100 % of control | [6] 106 % of control

C/C(=N/OC(=O)N(C)C)c1ccccc1
inactive: dose: 100.0 mg/kg/injection, schedule: Q01DX001 (ip), vehicle: carboxymethylcellulose (CMC) 104 % of control | dose: 200.0 mg/kg/injection, schedule: Q01DX001 (ip), vehicle: carboxymethylcellulose (CMC) 101 % of control | dose: 400.0 mg/kg/injection, schedule: Q01DX001 (ip), vehicle: carboxymethylcellulose (CMC) 90 % of control

COc1ccc(OC)c2[nH]c(=O)c(-c3ccccc3)nc12
inactive: [4] 97 % of control | [5] 95 % of control | [6] 91 % of control

COc1cc(C)ccc1C1OC(=O)c2c1ccc(OC)c2OC (centres undefined)
inactive: [7] 97 % of control | [8] 101 % of control | [9] 92 % of control

Cc1cccc(NC(C(=O)O)c2ccccc2)c1 (centres undefined)
inactive: [1] 100 % of control | [2] 93 % of control | [3] 89 % of control

O=C(O)c1ccc2ccccc2n1.[Cu+2]
inactive: [7] 93 % of control

COC1=C(Br)C(=O)C(OC)=C(Br)C1=O
inactive: [10] 95 % of control | dose: 50.0 mg/kg/injection, schedule: Q04DX003 (ip), vehicle: saline with Tween-80 92 % of control | [4] 91 % of control

C[N+]1(C)CCC2=CC3C=CC2C1C=C3 (centres undefined)
inactive: [11] 95 % of control | [12] 93 % of control | [13] 90 % of control

CCOC(=O)C(=O)C1CCCCC1=O (centres undefined)
inactive: [7] 108 % of control | [8] 108 % of control

Nc1ccccc1O
inactive: dose: 12.5 mg/kg/injection, schedule: Q04DX003 (ip), vehicle: Klucel (hydroxypropylcellulose) (HPC) 100 % of control | dose: 25.0 mg/kg/injection, schedule: Q04DX003 (ip), vehicle: Klucel (hydroxypropylcellulose) (HPC) 100 % of control | dose: 50.0 mg/kg/injection, schedule: Q04DX003 (ip), vehicle: Klucel (hydroxypropylcellulose) (HPC) 92 % of control | dose: 100.0 mg/kg/injection, schedule: Q01DX009 (ip), vehicle: saline 110 % of control | dose: 200.0 mg/kg/injection, schedule: Q01DX009 (ip), vehicle: saline 105 % of control | dose: 400.0 mg/kg/injection, schedule: Q01DX009 (ip), vehicle: saline 108 % of control | dose: 600.0 mg/kg/injection, schedule: Q01DX009 (ip), vehicle: saline 92 % of control

O=S(CCCl)c1ccccc1 (centres undefined)
inactive: [14] 98 % of control | [15] 98 % of control | [16] 98 % of control

CCCCn1c(C)nc2c([N+](=O)[O-])cc(C(F)(F)F)cc21
inactive: dose: 100.0 mg/kg/injection, schedule: Q01DX001 (ip), vehicle: Klucel (hydroxypropylcellulose) (HPC) 104 % of control | dose: 400.0 mg/kg/injection, schedule: Q01DX001 (ip), vehicle: Klucel (hydroxypropylcellulose) (HPC) 98 % of control

COC(C)CCC(=O)O.[Ag] (centres undefined)
inactive: dose: 6.25 mg/kg/injection, schedule: Q01DX009 (ip), vehicle: saline with Tween-80 95 % of control | dose: 12.5 mg/kg/injection, schedule: Q01DX009 (ip), vehicle: saline with Tween-80 91 % of control | dose: 12.5 mg/kg/injection, schedule: Q04DX003 (ip), vehicle: saline with Tween-80 91 % of control | dose: 25.0 mg/kg/injection, schedule: Q01DX009 (ip), vehicle: saline with Tween-80 95 % of control | [10] 96 % of control

C(=C\c1ccccc1)/CN1CCOCC1
inactive: dose: 25.0 mg/kg/injection, schedule: Q04DX002 (ip), vehicle: saline 94 % of control | dose: 50.0 mg/kg/injection, schedule: Q04DX002 (ip), vehicle: saline 94 % of control | dose: 100.0 mg/kg/injection, schedule: Q04DX002 (ip), vehicle: saline 105 % of control

C=C(C)C1(O)C=CC(=O)O1 (centres undefined)
inactive: [11] 102 % of control | [12] 100 % of control | [13] 107 % of control

CCCNC(C)(C)C(SS)c1ccc(Cl)cc1 (centres undefined)
inactive: dose: 100.0 mg/kg/injection, schedule: Q01DX009 (ip), vehicle: saline sonified 97 % of control | dose: 100.0 mg/kg/injection, schedule: Q04DX003 (ip), vehicle: saline sonified 106 % of control | dose: 200.0 mg/kg/injection, schedule: Q01DX009 (ip), vehicle: saline sonified 107 % of control | dose: 200.0 mg/kg/injection, schedule: Q04DX003 (ip), vehicle: saline sonified 95 % of control | dose: 400.0 mg/kg/injection, schedule: Q01DX009 (ip), vehicle: saline sonified 96 % of control | dose: 400.0 mg/kg/injection, schedule: Q04DX003 (ip), vehicle: saline sonified 95 % of control

Nc1nc(N)nc(-c2ccccc2N=NN2CCOCC2)n1
inactive: [14] 103 % of control | [15] 101 % of control | [16] 101 % of control

Nc1cccc2cn[nH]c12
inactive: dose: 100.0 mg/kg/injection, schedule: Q01DX009 (ip), vehicle: other 104 % of control | dose: 200.0 mg/kg/injection, schedule: Q01DX009 (ip), vehicle: other 112 % of control

O=C(O)c1ccc(NCc2cc(=O)[nH]c(=O)[nH]2)cc1
inactive: dose: 100.0 mg/kg/injection, schedule: Q04DX003 (ip), vehicle: saline 101 % of control | dose: 200.0 mg/kg/injection, schedule: Q04DX003 (ip), vehicle: saline 95 % of control | dose: 400.0 mg/kg/injection, schedule: Q04DX003 (ip), vehicle: saline 103 % of control

CCCCCCCCCCCCCCCCCCCCC1CC(=O)OC1=O (centres undefined)
inactive: [14] 91 % of control | [15] 92 % of control | [16] 91 % of control

From PubChem BioAssay AID248 (DTP/NCI, 2004)
